Laboratory results reported in ChEMBL document CHEMBL5113479, “Pyrido[2,3-d]pyrimidine-2,4(1H,3H)-dione derivatives as RAF-MEK-ERK pathway signaling pathway blockers: Synthesis, cytotoxic activity, mechanistic investigation and structure-activity relationships” (Eur J Med Chem, 2022).
The source made the active and inactive calls. No cut-off for these calls is given here.

What was measured:
SK-HEP1 [1] = experiment: Induction of cell cycle arrest in human SK-HEP1 cells assessed as accumulation of cells at S phase at 5 uM measured after 24 hrs by propidium iodide staining based flow cytometric analysis (reference value: 33.08 %); type: functional
SK-HEP1 [2] = experiment: Induction of apoptosis in human SK-HEP1 cells assessed as upregulation of activated caspase-9 protein expression at 1 to 2 uM by Western blot analysis; type: functional, cell-based; conditions: dose 1-2 µM
[3] = biological target: T1, Mitogen-activated protein kinase; ERK1/ERK2 (Homo sapiens) (UniProt P27361+P28482); experiment: Inhibition of intracellular ERK1/2 phosphorylation in human SK-HEP1 cells at 5 uM by Western blot analysis; type: cell-based
T1 sequence (P27361 whole entry, looked up): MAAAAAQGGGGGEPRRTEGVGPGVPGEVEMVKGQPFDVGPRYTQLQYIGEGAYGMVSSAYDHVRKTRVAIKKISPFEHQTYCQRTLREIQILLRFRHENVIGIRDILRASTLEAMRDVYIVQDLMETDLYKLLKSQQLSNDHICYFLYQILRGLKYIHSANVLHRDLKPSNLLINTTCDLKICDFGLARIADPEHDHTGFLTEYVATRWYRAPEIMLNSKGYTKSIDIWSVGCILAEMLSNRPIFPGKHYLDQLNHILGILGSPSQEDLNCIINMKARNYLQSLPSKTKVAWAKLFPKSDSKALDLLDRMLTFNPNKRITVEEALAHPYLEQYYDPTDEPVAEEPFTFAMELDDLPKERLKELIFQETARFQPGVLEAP
T1 sequence (P28482 whole entry, looked up): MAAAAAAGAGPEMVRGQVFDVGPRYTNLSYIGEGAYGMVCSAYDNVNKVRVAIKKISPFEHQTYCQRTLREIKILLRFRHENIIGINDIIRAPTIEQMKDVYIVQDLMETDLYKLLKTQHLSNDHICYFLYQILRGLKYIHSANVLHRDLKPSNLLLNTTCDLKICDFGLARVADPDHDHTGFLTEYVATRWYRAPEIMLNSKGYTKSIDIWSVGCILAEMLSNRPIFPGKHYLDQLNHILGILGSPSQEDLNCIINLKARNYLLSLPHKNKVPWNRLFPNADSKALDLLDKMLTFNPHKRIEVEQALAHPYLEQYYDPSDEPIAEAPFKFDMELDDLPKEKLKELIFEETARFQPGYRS

SK-HEP1 [4] = experiment: Antiproliferative activity against human SK-HEP1 cells cultured as 3D spheroids assessed as appearance of crumbled spheroids at 10 uM measured after 120 hrs by fluorescence microscopic analysis; type: functional, cell-based
SK-HEP1 [5] = experiment: Induction of cell cycle arrest in human SK-HEP1 cells assessed as accumulation of cells at G2/M phase at 1.25 uM measured after 24 hrs by propidium iodide staining based flow cytometric analysis (reference value: 18.32 %); type: functional
SK-HEP1 [6] = experiment: Induction of ROS production in human SK-HEP1 cells at 1 to 2 uM measured after 24 hrs by DCFH-DA staining based confocal microscopic and flow cytometry analysis; type: functional, cell-based; conditions: dose 1-2 µM
[7] = biological target: T1, Mitogen-activated protein kinase; ERK1/ERK2 (Homo sapiens); experiment: Inhibition of intracellular ERK1/2 phosphorylation in human A-375 cells at 5 uM by Western blot analysis; type: cell-based
SK-HEP1 [8] = experiment: Induction of cell cycle arrest in human SK-HEP1 cells assessed as accumulation of cells at S phase at 2.5 uM measured after 24 hrs by propidium iodide staining based flow cytometric analysis (reference value: 33.08 %); type: functional
SK-HEP1 [9] = experiment: Induction of cell cycle arrest in human SK-HEP1 cells assessed as accumulation of cells at G0/G1 phase at 2.5 uM measured after 24 hrs by propidium iodide staining based flow cytometric analysis (reference value: 48.40 %); type: functional
A-375 [10] = experiment: Antiproliferative activity against human A-375 cells assessed as inhibition of cell growth measured after 72 hrs by CCK8 assay; type: functional, cell-based; conditions: A-375, 72 h
SK-HEP1 [11] = experiment: Induction of apoptosis in human SK-HEP1 cells assessed as downregulation of ERK1 expression at 2.5 uM measured after 48 hrs by fluorescent quantitative PCR analysis relative to control; type: functional
MCF7 = experiment: Antiproliferative activity against human MCF7 cells assessed as inhibition of cell growth measured after 72 hrs by CCK8 assay; type: functional, cell-based; conditions: MCF7, 72 h
SK-HEP1 [12] = experiment: Induction of cell cycle arrest in human SK-HEP1 cells assessed as accumulation of cells at G2/M phase at 5 uM measured after 24 hrs by propidium iodide staining based flow cytometric analysis (reference value: 18.32 %); type: functional
SK-HEP1 [13] = experiment: Induction of cell cycle arrest in human SK-HEP1 cells assessed as accumulation of cells at G2/M phase at 2.5 uM measured after 24 hrs by propidium iodide staining based flow cytometric analysis (reference value: 18.32 %); type: functional
SK-HEP1 [14] = experiment: Inhibition of colony formation in human SK-HEP1 cells assessed as reduction in number of colonies at 0.2 uM measured after 7 days by crystal violet staining based assay; type: functional, cell-based; conditions: time 7.0 day
SK-HEP1 [15] = experiment: Inhibition of MEK1/2 phosphorylation in human SK-HEP1 cells by Western blot analysis; type: cell-based; conditions: dose 1-5 µM, DDE = dose-dependent effect
SK-HEP1 [16] = experiment: Inhibition of colony formation in human SK-HEP1 cells assessed as reduction in number of colonies at 2 uM measured after 7 days by crystal violet staining based assay; type: functional; conditions: SK-HEP1, 168 h, time 7 day
SK-HEP1 [17] = experiment: Induction of cell cycle arrest in human SK-HEP1 cells assessed as accumulation of cells at G0/G1 phase at 1.25 uM measured after 24 hrs by propidium iodide staining based flow cytometric analysis (reference value: 48.40 %); type: functional
SK-HEP1 [18] = experiment: Induction of cell cycle arrest in human SK-HEP1 cells assessed as accumulation of cells at S phase at 1.25 uM measured after 24 hrs by propidium iodide staining based flow cytometric analysis (reference value: 33.08 %); type: functional
SK-HEP1 [19] = experiment: Induction of apoptosis in human SK-HEP1 cells assessed as downregulation of B-Raf protein expression by Western blot analysis; type: functional, cell-based; conditions: dose 1-5 µM, DDE = dose-dependent effect
SK-HEP1 [20] = experiment: Induction of apoptosis in human SK-HEP1 cells assessed as downregulation of ERK2 expression at 2.5 uM measured after 48 hrs by fluorescent quantitative PCR analysis relative to control; type: functional
[21] = biological target: T1, Mitogen-activated protein kinase; ERK1/ERK2 (Homo sapiens); experiment: Inhibition of ERK1/2 phosphorylation in human SK-HEP1 cells by Western blot analysis; type: cell-based; conditions: dose 1-5 µM, DDE = dose-dependent effect
SK-HEP1 [22] = experiment: Induction of apoptosis in human SK-HEP1 cells assessed as late apoptotic cells at 1.25 to 5 uM measured after 48 hrs by AnnexinV-FITC/propidium iodide staining based flow cytometry analysis (reference value: 0.36 %); type: functional; conditions: dose 1.25-5 µM
SK-HEP1 [23] = experiment: Antiproliferative activity against human SK-HEP1 cells cultured as 3D spheroids assessed as appearance of flattened spheroids at 10 uM measured after 48 hrs by fluorescence microscopic analysis; type: functional, cell-based
SK-HEP1 [24] = experiment: Induction of apoptosis in human SK-HEP1 cells assessed as upregulation of activated caspase-3 protein expression at 1 to 2 uM by Western blot analysis; type: functional, cell-based; conditions: dose 1-2 µM
SK-HEP1 [25] = experiment: Induction of apoptosis in human SK-HEP1 cells assessed as downregulation of ERK1/2 protein expression by Western blot analysis; type: functional, cell-based; conditions: dose 1-5 µM, DDE = dose-dependent effect
A-375 [26] = experiment: Induction of apoptosis in human A-375 cells assessed as late apoptotic cells at 1.25 to 5 uM measured after 48 hrs by AnnexinV-FITC/propidium iodide staining based flow cytometry analysis (reference value: 1.61 %); type: functional; conditions: dose 1.25-5 µM
SK-MEL-2 [27] = experiment: Antiproliferative activity against human SK-MEL-2 cells assessed as inhibition of cell growth measured after 72 hrs by CCK8 assay; type: functional, cell-based; conditions: SK-MEL-2, 72 h
[28] = Cytotoxicity against human C-28/I2 cells measured after 72 hrs by CCK8 assay; type: toxicity, cell-based
SK-HEP1 [29] = experiment: Inhibition of cell migration in human SK-HEP1 cells at 2.5 uM measured after 12 to 24 hrs by inverted microscopy based wound healing assay; type: functional; conditions: time 12-24 hrs
SK-HEP1 [30] = experiment: Antiproliferative activity against human SK-HEP1 cells assessed as inhibition of cell growth measured after 72 hrs by CCK8 assay; type: functional, cell-based; conditions: SK-HEP1, 72 h
SK-HEP1 [31] = experiment: Antiproliferative activity against human SK-HEP1 cells cultured as 3D spheroids assessed as appearance of collapsed spheroids at 10 uM measured after 96 hrs by fluorescence microscopic analysis; type: functional, cell-based
SK-HEP1 [32] = experiment: Induction of cell cycle arrest in human SK-HEP1 cells assessed as accumulation of cells at G0/G1 phase at 5 uM measured after 24 hrs by propidium iodide staining based flow cytometric analysis (reference value: 48.40 %); type: functional
SK-MEL-2 [33] = experiment: Antiproliferative activity against human SK-MEL-2 cells assessed as inhibition of cell growth; type: functional, cell-based
[34] = Cytotoxicity against human C-28/I2 cells; type: toxicity, cell-based
A-375 [35] = experiment: Cytotoxicity against human A-375 cells assessed as inhibition of cell growth; type: functional, cell-based

CN1CCN(c2cc(NCC(=O)Nc3cccc(Cl)c3)c3c(=O)n(C)c(=O)n(C)c3n2)CC1
Activity (SK-HEP1 [1]): 31.23% | Activity (SK-HEP1 [2]): Active | inhibition [3]: Active | Activity (SK-HEP1 [4]): Active | Activity (SK-HEP1 [5]): 21.31% | Activity (SK-HEP1 [6]): Active | inhibition [7]: Active | Activity (SK-HEP1 [8]): 34.93% | Activity (SK-HEP1 [9]): 45.09% | IC50 (A-375 [10]): 5.2 µM | Activity (SK-HEP1 [11]): 70% | IC50 (MCF7): 3.15 µM | Activity (SK-HEP1 [12]): 23.92% | Activity (SK-HEP1 [13]): 19.98% | inhibition (SK-HEP1 [14]): Active | inhibition (SK-HEP1 [15]): Dde | inhibition at 2 µM (SK-HEP1 [16]): 100% | Activity (SK-HEP1 [17]): 44.1% | Activity (SK-HEP1 [18]): 34.59% | Activity (SK-HEP1 [19]): Dde | Activity (SK-HEP1 [20]): 60% | inhibition [21]: Dde | Activity (SK-HEP1 [22]): 42.4% | Activity (SK-HEP1 [23]): Active | Activity (SK-HEP1 [24]): Active | Activity (SK-HEP1 [25]): Dde | Activity (A-375 [26]): 32.6% | IC50 (SK-MEL-2 [27]): 4.79 µM | CC50 at 72 h [28]: > 50 µM | inhibition (SK-HEP1 [29]): Active | IC50 (SK-HEP1 [30]): 2.04 µM | Activity (SK-HEP1 [31]): Active | Activity (SK-HEP1 [32]): 44.85%

O=c1[nH]c2c(c(O)c1Cc1ccccc1)c(=O)n(-c1ccc(OC(F)(F)F)cc1)c(=O)n2-c1ccc(OC(F)(F)F)cc1
IC50 (A-375 [10]): 24.5 µM | IC50 (MCF7): 9.98 µM | IC50 (SK-MEL-2 [33]): 13.7 µM | CC50 [34]: 35.9 µM | IC50 (A-375 [35]): 12.8 µM
